This is an account of results in ChEMBL document CHEMBL1201862, “PubChem BioAssay data set” (2004).

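Results reflect a 48-hour exposure of cells in 96-well plates to compound at five concentrations. GI50 marks 50% less growth.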 Active and inactive are the calls of the source. No stated cut-off is given here; in the data, active = GI50 up to about 1.1 µM and inactive = higher.

Test systems include SF-268; RXF 393; MDA-MB-231; K562; OVCAR-5; NCI-H460; NCI-H522; A549; COLO 205; MCF7; EKVX; SW-620; 786-0; T47D; SK-OV-3; IGROV-1; HOP-92; MDA-MB-435; SF-295; SK-MEL-28.
Holding throughout (experiment): inhibition of tumour cell growth, NCI panel, 48 h

As for `O=C(O)c1cc(O)nc(S)n1`, the GI50 in the experiment with SF-268, in the experiment with RXF 393, with MDA-MB-231, in the experiment with K562, in the experiment with OVCAR-5 and with NCI-H460 was > 100 µM (inactive) throughout. Besides, the GI50 with NCI-H522, with A549, with COLO 205, with MCF7, in the experiment on EKVX and in the experiment on SW-620 was > 100 µM (inactive) in each case. For the same molecule, the GI50 with 786-0, with T47D, in the experiment on SK-OV-3, in the experiment on IGROV-1, in the experiment with HOP-92 and in the experiment on MDA-MB-435 was > 100 µM (inactive) in each case. Besides, the GI50 in the experiment with SF-295 and with SK-MEL-28 was > 100 µM (inactive) throughout.

As to `O=S(=O)(c1ccccc1)N1CCN(S(=O)(=O)c2ccccc2)c2ccccc21`, the GI50 was > 100 µM (inactive) with SF-268; > 100 µM (inactive) with RXF 393; > 100 µM (inactive) in the experiment on MDA-MB-231; 96.4 µM (inactive) with K562; > 100 µM (inactive) with OVCAR-5; > 100 µM (inactive) in the experiment on NCI-H460. Moreover, the GI50 with NCI-H522 is 42.5 µM (inactive); in the experiment with A549, > 100 µM (inactive); in the experiment with COLO 205, > 100 µM (inactive); with MCF7 it was 91.8 µM (inactive); in the experiment on EKVX it was 31 µM (inactive); in the experiment with SW-620, > 100 µM (inactive). Moreover, the GI50 with 786-0, in the experiment with T47D, with SK-OV-3, with IGROV-1, in the experiment on HOP-92 and in the experiment on MDA-MB-435 was > 100 µM (inactive) throughout. In addition, the values for the GI50 with SF-295 and in the experiment on SK-MEL-28 were 81.8 µM (inactive) and > 100 µM (inactive), respectively.

For `COc1ccc2c(c1)CCCC(Br)C2=O` (stereo not given), the GI50 in the experiment with SF-268 was 3.35 µM (inactive); in the experiment on RXF 393 it was 4.78 µM (inactive); with MDA-MB-231, 2.92 µM (inactive); with K562, 0.447 µM (active); in the experiment with OVCAR-5 it was 5.92 µM (inactive); with NCI-H460 it was 3.18 µM (inactive). The GI50 is 0.265 µM (active) with NCI-H522; 4.71 µM (inactive) in the experiment with A549; 3.44 µM (inactive) in the experiment on COLO 205; 3.43 µM (inactive) with MCF7; 18.1 µM (inactive) with EKVX; 2.29 µM (inactive) in the experiment on SW-620. For the same molecule, the GI50 is 4.15 µM (inactive) in the experiment with 786-0; 23.9 µM (inactive) with T47D; 3.97 µM (inactive) in the experiment with SK-OV-3; 1.51 µM (inactive) in the experiment on IGROV-1; 7.57 µM (inactive) with HOP-92; 2.02 µM (inactive) in the experiment with MDA-MB-435. The figures for the GI50 in the experiment with SF-295 and with SK-MEL-28 were 3.99 µM (inactive) and 6.92 µM (inactive), respectively.

`CC(=O)OC12C3C4C1C1C2C3C41OC(C)=O` (stereo not given): the GI50 with SF-268, with RXF 393, in the experiment with MDA-MB-231, with K562, in the experiment with OVCAR-5 and with NCI-H460 was > 100 µM (inactive) in each case. The GI50 in the experiment on NCI-H522, in the experiment on A549, in the experiment on COLO 205, in the experiment with MCF7, with EKVX and in the experiment with SW-620 was > 100 µM (inactive) throughout. The GI50 with 786-0, with T47D, in the experiment with SK-OV-3, in the experiment with IGROV-1, in the experiment with HOP-92 and with MDA-MB-435 was > 100 µM (inactive) throughout. Further, the GI50 in the experiment on SF-295 and in the experiment with SK-MEL-28 was > 100 µM (inactive) in each case.

In the case of `N#CC(N)c1ccc(OCCCCCCCCCCOc2ccc(C(N)C#N)cc2)cc1` (stereo not given), the GI50 was > 100 µM (inactive) in the experiment on SF-268; 43.2 µM (inactive) with RXF 393; > 100 µM (inactive) with MDA-MB-231; > 100 µM (inactive) in the experiment with K562; > 100 µM (inactive) with OVCAR-5; > 100 µM (inactive) with NCI-H460. Further, the GI50 in the experiment on NCI-H522, with A549, with COLO 205, with MCF7, with EKVX and in the experiment on SW-620 was > 100 µM (inactive) each time. Further, the GI50 with 786-0 is > 100 µM (inactive); in the experiment on T47D, 84.1 µM (inactive); in the experiment with SK-OV-3, > 100 µM (inactive); with IGROV-1, > 100 µM (inactive); in the experiment on HOP-92, > 100 µM (inactive); in the experiment with MDA-MB-435, > 100 µM (inactive). The GI50 with SF-295 and with SK-MEL-28 was > 100 µM (inactive) throughout.

For `CN(C)CCNS(=O)(=O)c1ccc(N)cc1`, the GI50 with SF-268, with RXF 393, with MDA-MB-231, with K562, in the experiment on OVCAR-5 and in the experiment on NCI-H460 was > 100 µM (inactive) throughout. The GI50 in the experiment with NCI-H522, in the experiment with A549, in the experiment with COLO 205, in the experiment on MCF7, in the experiment with EKVX and in the experiment with SW-620 was > 100 µM (inactive) each time. The GI50 in the experiment on 786-0, in the experiment on T47D, in the experiment on SK-OV-3, in the experiment with IGROV-1, with HOP-92 and in the experiment on MDA-MB-435 was > 100 µM (inactive) each time. The GI50 in the experiment with SF-295 and in the experiment with SK-MEL-28 was > 100 µM (inactive) throughout.

Take `COC12C=CC(CC1)C(C)(C)C2=O` (stereo not given): the GI50 with SF-268, with RXF 393, in the experiment with MDA-MB-231, in the experiment with K562, in the experiment on OVCAR-5 and in the experiment on NCI-H460 was > 100 µM (inactive) in each case. The GI50 in the experiment on NCI-H522, in the experiment on A549, with COLO 205, with MCF7, in the experiment on EKVX and in the experiment with SW-620 was > 100 µM (inactive) each time. For the same molecule, the GI50 in the experiment on 786-0, with T47D, in the experiment with SK-OV-3, in the experiment on IGROV-1, in the experiment on HOP-92 and with MDA-MB-435 was > 100 µM (inactive) each time. In addition, the GI50 in the experiment with SF-295 and in the experiment on SK-MEL-28 was > 100 µM (inactive) in each case.

For the molecule `N=C(N)NS(=O)(=O)c1ccc(NC(=O)c2cccc3c(NNc4ccc(S(N)(=O)=O)cc4)c4ccccc4nc23)cc1`, the GI50 was 73.5 µM (inactive) in the experiment with SF-268; > 100 µM (inactive) in the experiment on RXF 393; 27.5 µM (inactive) in the experiment with MDA-MB-231; 26.6 µM (inactive) in the experiment on K562; > 100 µM (inactive) in the experiment on OVCAR-5; 83.4 µM (inactive) with NCI-H460. Besides, the GI50 is 41.1 µM (inactive) in the experiment on NCI-H522; > 100 µM (inactive) with A549; > 100 µM (inactive) in the experiment with COLO 205; 26.4 µM (inactive) with MCF7; 47.4 µM (inactive) in the experiment on EKVX; 45.4 µM (inactive) with SW-620. The GI50 is 59.4 µM (inactive) with 786-0; 18.7 µM (inactive) in the experiment on T47D; > 100 µM (inactive) in the experiment on SK-OV-3; 55.5 µM (inactive) in the experiment on IGROV-1; 25.3 µM (inactive) with HOP-92; 51.6 µM (inactive) with MDA-MB-435. Moreover, the GI50 in the experiment with SF-295 and with SK-MEL-28 was > 100 µM (inactive) each time.

For `COC(=O)c1ccc(/C=C2\CCc3ccccc3C2=O)cc1`, the GI50 in the experiment with SF-268, with RXF 393, in the experiment with MDA-MB-231, in the experiment on K562, in the experiment on OVCAR-5 and in the experiment on NCI-H460 was > 100 µM (inactive) in each case. The GI50 in the experiment with NCI-H522 was 69.7 µM (inactive); with A549, > 100 µM (inactive); in the experiment on COLO 205, > 100 µM (inactive); with MCF7, > 100 µM (inactive); in the experiment on EKVX it was > 100 µM (inactive); in the experiment with SW-620 it was > 100 µM (inactive). In addition, the GI50 with 786-0, in the experiment on T47D, with SK-OV-3, in the experiment with IGROV-1, in the experiment with HOP-92 and in the experiment with MDA-MB-435 was > 100 µM (inactive) throughout. The GI50 in the experiment on SF-295 and with SK-MEL-28 was > 100 µM (inactive) throughout.

Regarding `CC(=O)O[C@H]1C(=O)[C@@]2(C)[C@H]([C@H](OC(=O)c3ccccc3)[C@]3(O)C[C@H](OC(=O)[C@H](O)[C@@H](NC(=O)c4ccoc4)c4ccccc4)C(C)=C1C3(C)C)[C@]1(OC(C)=O)CO[C@@H]1C[C@@H]2O`, the GI50 with SF-268 is 0.0325 µM (active); in the experiment with RXF 393 it was < 0.01 µM (active); with MDA-MB-231 it was 0.0434 µM (active); in the experiment on K562, 0.016 µM (active); with OVCAR-5, 0.0256 µM (active); in the experiment with NCI-H460 it was 0.023 µM (active). Also, the GI50 with NCI-H522 is < 0.01 µM (active); in the experiment on A549, 0.0386 µM (active); in the experiment on COLO 205, 0.026 µM (active); in the experiment with MCF7 it was 0.0265 µM (active); in the experiment on EKVX, 0.897 µM (active); in the experiment on SW-620, 0.021 µM (active). The GI50 was 0.18 µM (active) in the experiment on 786-0; 0.0307 µM (active) in the experiment on T47D; 0.358 µM (active) in the experiment with SK-OV-3; 0.016 µM (active) in the experiment with IGROV-1; 0.552 µM (active) with HOP-92; 0.0071 µM (active) in the experiment with MDA-MB-435. The GI50 in the experiment on SF-295 is < 0.01 µM (active); in the experiment with SK-MEL-28 it was 0.0532 µM (active).
